Activity calls are given as the source filed them. No cut-off for these calls is given here.
How the values were obtained:
Mus musculus [1] = assay: Radioprotective activity in C57BL/6J mouse assessed as survival rate at 100 mg/kg, sc preincubated with compound for 24 hrs followed by total body irradiation with 8.5 Gy and measured after 20 days by Kaplan-meier plot analysis; format: functional; conditions: light or radiation study, 504 h, time 21 day
Mus musculus [2] = assay: Radioprotective activity in C57BL/6J mouse assessed as increase in G-CSF production in serum at 100 mg/kg, sc; format: functional, organism-based; conditions: time 24.0 hrs
Mus musculus [3] = assay: Radioprotective activity in C57BL/6J mouse assessed as increase in RBC count at 100 mg/kg, sc preincubated with compound for 24 hrs followed by total body irradiation with 6.5 Gy and measured on day 14; format: functional, organism-based; conditions: time 15.0 day
[4] = MRT (0 to infinity) in ICR mouse at 100 mg/kg, iv measured upto 24 hrs by LC-MS/MS analysis; format: ADME, organism-based; conditions: in vivo, iv, 100 mg/kg, 24 h
[5] = Cmax in ICR mouse at 100 mg/kg, iv measured upto 24 hrs by LC-MS/MS analysis; format: ADME, organism-based; conditions: in vivo
Mus musculus [6] = assay: Radioprotective activity in C57BL/6J mouse assessed as effect on LT-HSC number at 100 mg/kg, sc preincubated with compound for 24 hrs followed by total body irradiation with 6.5 Gy and measured after 30 days; format: functional, organism-based; conditions: time 31.0 day
[7] = Stability in […] human plasma assessed as half-life; format: ADME, cell-free
Mus musculus [8] = assay: Radioprotective activity in C57BL/6J mouse assessed as increase in multipotent progenitor frequency in LSK compartment at 100 mg/kg, sc preincubated with compound for 24 hrs followed by total body irradiation with 6.5 Gy and measured after 30 days; format: functional, organism-based; conditions: time 31.0 day
Mus musculus [9] = assay: Radioprotective activity in C57BL/6J mouse assessed as increase in G-CSF production in serum at 100 mg/kg, sc measured for 72 hrs; format: functional, organism-based
[10] = Clearance in ICR mouse at 100 mg/kg, iv measured upto 24 hrs by LC-MS/MS analysis; format: ADME, organism-based; conditions: in vivo
[11] = Half life in ICR mouse at 100 mg/kg, iv measured upto 24 hrs by LC-MS/MS analysis; format: ADME, organism-based; conditions: in vivo
[12] = Tmax in ICR mouse at 100 mg/kg, sc measured upto 24 hrs by LC-MS/MS analysis; format: ADME, organism-based; conditions: in vivo
Mus musculus [13] = assay: Radioprotective activity in C57BL/6J mouse assessed as survival rate at 100 mg/kg, sc preincubated with compound for 24 hrs followed by total body irradiation with 8.5 Gy and measured after 30 days by Kaplan-meier plot analysis; format: functional; conditions: Mus musculus, C57BL/6J, light or radiation study, 744 h, time 31 day
Mus musculus [14] = assay: Radioprotective activity in C57BL/6J mouse assessed as increase in number of total bone marrow cells at 100 mg/kg, sc preincubated with compound for 24 hrs followed by total body irradiation with 6.5 Gy and measured after 30 days; format: functional, organism-based; conditions: time 31.0 day
Mus musculus [15] = assay: Radioprotective activity in C57BL/6J mouse assessed as increase in platelet count at 100 mg/kg, sc preincubated with compound for 24 hrs followed by total body irradiation with 6.5 Gy and measured on day 10; format: functional, organism-based; conditions: time 11.0 day
[16] = Cmax in ICR mouse at 100 mg/kg, sc measured upto 24 hrs by LC-MS/MS analysis; format: ADME, organism-based; conditions: in vivo
Mus musculus [17] = assay: Radioprotective activity in C57BL/6J mouse assessed as increase in RBC count at 100 mg/kg, sc preincubated with compound for 24 hrs followed by total body irradiation with 6.5 Gy and measured after 30 days; format: functional, organism-based; conditions: time 31.0 day
Mus musculus [18] = assay: Radioprotective activity in C57BL/6J mouse assessed as increase in MPP number at 100 mg/kg, sc preincubated with compound for 24 hrs followed by total body irradiation with 6.5 Gy and measured after 30 days; format: functional, organism-based; conditions: time 31.0 day
[19] = Tmax in ICR mouse at 100 mg/kg, iv measured upto 24 hrs by LC-MS/MS analysis; format: ADME, organism-based; conditions: in vivo
Mus musculus [20] = assay: Radioprotective activity in C57BL/6J mouse assessed as increase in platelets count at 100 mg/kg, sc preincubated with compound for 24 hrs followed by total body irradiation with 6.5 Gy and measured after 30 days; format: functional, organism-based; conditions: time 31.0 day
[21] = Drug concentration in C57BL/6J mouse plasma at 100 mg/kg, sc measured after 24 hrs; format: ADME, organism-based; conditions: in vivo
Mus musculus [22] = assay: Radioprotective activity in C57BL/6J mouse assessed as […] in survival rate at 100 mg/kg, sc preincubated with compound for 24 hrs followed by total body irradiation with 9.5 Gy and measured after 30 days by Kaplan-meier plot analysis; format: functional, organism-based; conditions: time 31.0 day
Mus musculus [23] = assay: Radioprotective activity in C57BL/6J mouse assessed as increase in percentage of LSK cells at 100 mg/kg, sc preincubated with compound for 24 hrs followed by total body irradiation with 6.5 Gy and measured after 30 days; format: functional, organism-based; conditions: time 31.0 day
Mus musculus [24] = assay: Radioprotective activity in C57BL/6J mouse assessed as increase in ST-HSC number at 100 mg/kg, sc preincubated with compound for 24 hrs followed by total body irradiation with 6.5 Gy and measured after 30 days; format: functional, organism-based; conditions: time 31.0 day
Mus musculus [25] = assay: Radioprotective activity in C57BL/6J mouse assessed as increase in G-CSF production in serum at 100 mg/kg, sc measured for 6 to 24 hrs; format: functional, organism-based; conditions: time 6-24 hrs
[26] = MRT (0 to t) in ICR mouse at 100 mg/kg, sc measured upto 24 hrs by LC-MS/MS analysis; format: ADME, organism-based; conditions: in vivo
Mus musculus [27] = assay: Radioprotective activity in C57BL/6J mouse assessed as increase in percentage of LK cells at 100 mg/kg, sc preincubated with compound for 24 hrs followed by total body irradiation with 6.5 Gy and measured after 30 days; format: functional, organism-based; conditions: time 31.0 day
[28] = Volume of distribution at steady state in ICR mouse at 100 mg/kg, iv measured upto 24 hrs by LC-MS/MS analysis; format: ADME, organism-based; conditions: in vivo, iv, 100 mg/kg, 24 h
Mus musculus [29] = assay: Radioprotective activity in C57BL/6J mouse assessed as increase in neutrophils at 100 mg/kg, sc preincubated with compound for 24 hrs followed by total body irradiation with 6.5 Gy and measured on day 7; format: functional, organism-based; conditions: time 8.0 day
[30] = MRT (0 to t) in ICR mouse at 100 mg/kg, iv measured upto 24 hrs by LC-MS/MS analysis; format: ADME, organism-based; conditions: in vivo
Mus musculus [31] = assay: Induction of G-CSF production in C57BL/6J mouse model at 100 mg/kg, sc measured for 24 hrs by ELISA analysis; format: functional, organism-based
Mus musculus [32] = assay: Radioprotective activity in C57BL/6J mouse assessed as survival rate at 100 mg/kg, sc preincubated with compound for 24 hrs followed by total body irradiation with 9.5 Gy and measured after 30 days by Kaplan-meier plot analysis; format: functional; conditions: light or radiation study, 744 h, time 31 day
[33] = Stability in C57BL/6J mouse plasma assessed as half-life; format: ADME, cell-free
[34] = Stability in C57BL/6J mouse whole blood assessed as half-life; format: ADME, tissue-based
Mus musculus [35] = assay: Radioprotective activity in C57BL/6J mouse assessed as fold increase in total number of splenic nucleated cells at 100 mg/kg, sc preincubated with compound for 24 hrs followed by total body irradiation with 6.5 Gy and measured after 10 days; format: functional; conditions: time 11 day
Mus musculus [36] = assay: Radioprotective activity in C57BL/6J mouse assessed as splenomegaly at 100 mg/kg, sc preincubated with compound for 24 hrs followed by total body irradiation with 6.5 Gy and measured after 10 days; format: functional, organism-based; conditions: time 11.0 day
[37] = Bioavailability in ICR mouse at 100 mg/kg, sc measured upto 24 hrs by LC-MS/MS analysis; format: ADME, organism-based; conditions: in vivo
Mus musculus [38] = assay: Radioprotective activity in C57BL/6J mouse assessed as increase in spleen coefficient at 100 mg/kg, sc preincubated with compound for 24 hrs followed by total body irradiation with 6.5 Gy and measured after 10 days; format: functional, organism-based; conditions: time 11.0 day
Mus musculus [39] = assay: Radioprotective activity in C57BL/6J mouse assessed as increase in neutrophils at 100 mg/kg, sc preincubated with compound for 24 hrs followed by total body irradiation with 6.5 Gy and measured after 30 days; format: functional, organism-based; conditions: time 31.0 day
Mus musculus [40] = assay: Radioprotective activity in C57BL/6J mouse assessed as increase in WBC count at 100 mg/kg, sc preincubated with compound for 24 hrs followed by total body irradiation with 6.5 Gy and measured after 30 days; format: functional, organism-based; conditions: time 31.0 day
Mus musculus [41] = assay: Radioprotective activity in C57BL/6J mouse assessed as increase in long term hematopoietic stem cell frequency in LSK compartment at 100 mg/kg, sc preincubated with compound for 24 hrs followed by total body irradiation with 6.5 Gy and measured after 30 days; format: functional, organism-based; conditions: time 31.0 day
Mus musculus [42] = assay: Radioprotective activity in C57BL/6J mouse assessed as effect on splenic LT-HSCs number at 100 mg/kg, sc preincubated with compound for 24 hrs followed by total body irradiation with 6.5 Gy and measured after 10 days; format: functional, organism-based; conditions: time 11.0 day

Compound: CC(C)=CCC/C(C)=C/CC/C(C)=C/CC[C@]1(C)CCc2cc(OC(=O)CCC(=O)O)cc(C)c2O1
- survival at 100 mg/kg (Mus musculus [1]): 70%
- Activity (Mus musculus [2]): Time-dependent-effect
- Activity (Mus musculus [3]): Active
- MRT [4]: 3.47 h
- Cmax [5]: 5.15 ng/mL
- Activity (Mus musculus [6]): inactive
- half-life [7]: 1.92 h
- Activity (Mus musculus [8]): Active
- Activity (Mus musculus [9]): Active
- CL [10]: 3.7553 mL/min/kg
- half-life [11]: 10.4 h
- Tmax [12]: 4.98 min
- survival at 100 mg/kg (Mus musculus [13]): 90%
- Activity (Mus musculus [14]): Active
- Activity (Mus musculus [15]): Active
- Cmax [16]: 2.02 ng/mL
- Activity (Mus musculus [17]): Active
- Activity (Mus musculus [18]): Active
- Tmax [19]: 4.98 min
- Activity (Mus musculus [20]): Active
- Drug uptake [21]: Active
- Activity (Mus musculus [22]): inactive
- Activity (Mus musculus [23]): Active
- Activity (Mus musculus [24]): Active
- Activity (Mus musculus [25]): Active
- MRT last at 24 h [26]: 11.9 h
- Activity (Mus musculus [27]): Active
- Vdss [28]: 0.33658 L/kg
- Activity (Mus musculus [29]): Active
- MRT last at 24 h [30]: 1.36 h
- Activity (Mus musculus [31]): Active
- survival at 100 mg/kg (Mus musculus [32]): 90%
- half-life [33]: 3.73 h
- half-life [34]: 9.3 min
- fold change (FC) (Mus musculus [35]): ~2.5
- Activity (Mus musculus [36]): Active
- F [37]: 13.86%
- Activity (Mus musculus [38]): Active
- Activity (Mus musculus [39]): Active
- Activity (Mus musculus [40]): Active
- Activity (Mus musculus [41]): Active
- Activity (Mus musculus [42]): Active
